# Where two headings read alike, the source gives them in different places. *1 amine or outer side, *2 acyl side, *3 side chain or, on linkers, in order; H or OH if unused. Where a SMILES comes first, the peptide text is derived from it. Side-chain parts run from the residue outwards. [ ]: non-standard residue; d: D form. The star is where a group is joined. αMePhe(2-F) = C[C@](N)(Cc1ccccc1F)C(=O)O; γGlu = O=C(O)[C@H](CCC(=O)[*:2])N[*:1]; C14 diacid = O=C(O)CCCCCCCCCCCCC(=O)*; αMeY = C[C@](N)(Cc1ccc(O)cc1)C(=O)O; 4Pal = N[C@@H](Cc1ccncc1)C(=O)O; αMeL = CC(C)C[C@](C)(N)C(=O)O; Orn = NCCC[C@H](N)C(=O)O; AEEA = NCCOCCOCC(=O)O; Aib = CC(C)(N)C(=O)O
# Assays:
# Format in all cases: cell-based
# hGIPR = target: T1, hGIPR (Homo sapiens, UniProt P48546); experiment: Functional cAMP formation (HTRF) in HEK-293 clonal cells expressing hGIPR, 0.1% bovine casein, without or with 1.0% human serum albumin; conditions: for Emax: read-out: hGIPR Emax, % ± SEM; for EC50: geometric mean, read-out: hGIPR EC50, nM (SEM, n)
# T1 construct: expressed in transfected cells
# T1 sequence (P48546 22-466): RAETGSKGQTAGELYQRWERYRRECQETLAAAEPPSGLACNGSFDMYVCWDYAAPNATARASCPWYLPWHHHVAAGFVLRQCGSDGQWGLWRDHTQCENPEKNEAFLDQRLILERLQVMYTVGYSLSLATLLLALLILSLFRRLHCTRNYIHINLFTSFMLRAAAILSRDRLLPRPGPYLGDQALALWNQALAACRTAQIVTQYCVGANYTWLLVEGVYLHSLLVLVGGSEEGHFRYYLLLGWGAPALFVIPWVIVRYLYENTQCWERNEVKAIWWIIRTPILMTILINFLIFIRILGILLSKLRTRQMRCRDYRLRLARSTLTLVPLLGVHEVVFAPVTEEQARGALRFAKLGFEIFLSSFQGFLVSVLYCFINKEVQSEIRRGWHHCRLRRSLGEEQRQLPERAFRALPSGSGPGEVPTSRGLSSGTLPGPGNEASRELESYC
# How it was run: (§1)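 Readings of the HTRF 665/620 nm ratio, which falls as cAMP rises, were converted to nM cAMP using a standard curve after 30 min peptide exposure at 37° C.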
# hGLP-1R = hGLP-1R (Homo sapiens, UniProt P43220); experiment: Functional cAMP formation (HTRF) in HEK-293 clonal cells expressing hGLP-1R, 0.1% bovine casein, without or with 1.0% human serum albumin; design: expressed in transfected cells; conditions: for Emax: percent of maximal response to GLP-1(7-36)NH2, read-out: hGLP-1R Emax, % ± SEM; for EC50: geometric mean, read-out: hGLP-1R EC50, nM (SEM, n)
# hGLP-1R, sequence (P43220 24-463): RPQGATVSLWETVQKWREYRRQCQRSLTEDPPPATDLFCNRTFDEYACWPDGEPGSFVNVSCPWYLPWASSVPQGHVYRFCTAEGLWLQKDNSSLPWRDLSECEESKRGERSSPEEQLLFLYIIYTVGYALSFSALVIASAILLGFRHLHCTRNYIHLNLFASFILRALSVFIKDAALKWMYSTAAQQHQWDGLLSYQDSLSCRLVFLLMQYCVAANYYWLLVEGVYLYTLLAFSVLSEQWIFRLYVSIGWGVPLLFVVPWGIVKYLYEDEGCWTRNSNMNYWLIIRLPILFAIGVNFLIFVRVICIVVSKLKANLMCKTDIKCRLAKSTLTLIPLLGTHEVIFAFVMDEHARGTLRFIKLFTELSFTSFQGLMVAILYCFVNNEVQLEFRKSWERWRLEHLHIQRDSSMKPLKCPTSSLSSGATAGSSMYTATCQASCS
# How it was run: as §1
# hGCGR = target: T2, hGCGR (Homo sapiens, UniProt P47871); experiment: Functional cAMP formation (HTRF) in HEK-293 clonal cells expressing hGCGR, 0.1% bovine casein, without or with 1.0% human serum albumin; conditions: read-out: hGCGR EC50, nM (SEM, n)
# T2 construct: expressed in transfected cells
# T2 sequence (P47871 26-477): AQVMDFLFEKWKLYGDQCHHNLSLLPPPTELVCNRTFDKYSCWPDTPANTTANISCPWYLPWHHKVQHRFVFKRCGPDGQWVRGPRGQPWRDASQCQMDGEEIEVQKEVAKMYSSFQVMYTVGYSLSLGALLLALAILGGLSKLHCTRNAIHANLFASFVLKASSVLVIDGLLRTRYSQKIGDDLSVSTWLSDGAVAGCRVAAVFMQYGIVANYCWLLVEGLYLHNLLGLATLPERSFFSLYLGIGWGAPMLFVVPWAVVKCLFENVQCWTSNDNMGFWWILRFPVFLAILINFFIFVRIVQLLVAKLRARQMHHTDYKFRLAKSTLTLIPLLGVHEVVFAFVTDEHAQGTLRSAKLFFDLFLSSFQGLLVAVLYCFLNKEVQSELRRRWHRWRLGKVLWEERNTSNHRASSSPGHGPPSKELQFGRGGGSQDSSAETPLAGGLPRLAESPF
# How it was run: as §1
# [1] = HEK293, 0.1% bovine casein and 1.0% human serum albumin, 37° C., percent of maximal response to GIP(1-42)NH2
# [2] = cAMP, 37° C., 0.1% bovine casein (no human serum albumin)
# [3] = HEK293, cAMP, 37° C., 0.1% bovine casein, arithmetic mean
# [4] = 0.1% bovine casein and 1.0% human serum albumin, 37° C., geometric mean
# [5] = cAMP, 37° C., 0.1% bovine casein (no human serum albumin), geometric mean
# [6] = 0.1% bovine casein and 1.0% human serum albumin, 37° C.
# [7] = cAMP, incubated at 37° C., 0.1% bovine casein (no human serum albumin)
# [8] = HEK293, cAMP, 37° C., 0.1% bovine casein, percent of maximal response to GIP(1-42)NH2, arithmetic mean
Structure (SMILES),Emax (hGIPR; [1]),EC50 (hGIPR; [2]),"Emax (hGLP-1R; HEK293, 0.1% bovine casein and 1.0% human serum albumin, 37° C.)",Emax (hGLP-1R; [3]),EC50 (hGLP-1R; [2]),EC50 (hGCGR; [4]),EC50 (hGCGR; [5]),EC50 (hGIPR; [6]),"Emax (hGIPR; HEK293, percent of maximal response to GIP(1-42)NH2, 37° C., 0.1% bovine casein, arithmetic mean)",EC50 (hGIPR; [7]),EC50 (hGLP-1R; [6]),EC50 (hGLP-1R; [7]),"EC50 (hGCGR; cAMP, incubated at 37° C., 0.1% bovine casein (no human serum albumin), geometric mean)","Emax (hGIPR; HEK293, cAMP, 37° C., 0.1% bovine casein and 1.0% human serum albumin, percent of maximal response to GIP(1-42)NH2)","EC50 (hGCGR; cAMP, 37° C., 0.1% bovine casein and 1.0% human serum albumin, geometric mean (SEM, n))",Emax (hGIPR; [8])
CC[C@H](C)[C@H](NC(=O)[C@H](CCCN)NC(=O)[C@H](CC(=O)O)NC(=O)[C@H](CC(C)C)NC(=O)[C@](C)(CC(C)C)NC(=O)[C@@H](NC(=O)C(C)(C)NC(=O)[C@H](Cc1ccncc1)NC(=O)[C@H](CC(=O)O)NC(=O)[C@H](CO)NC(=O)[C@@H](NC(=O)[C@](C)(Cc1ccccc1F)NC(=O)[C@@H](NC(=O)CNC(=O)[C@H](CCC(=O)O)NC(=O)C(C)(C)NC(=O)[C@@H](N)Cc1ccc(O)cc1)[C@@H](C)O)[C@@H](C)O)[C@@H](C)CC)C(=O)N[C@@H](C)C(=O)N[C@@H](CCC(N)=O)C(=O)NC(C)(C)C(=O)N[C@@H](CCCN)C(=O)N[C@@H](Cc1ccccc1)C(=O)N[C@H](C(=O)N[C@@H](CCCCNC(=O)COCCOCCNC(=O)COCCOCCNC(=O)CC[C@H](NC(=O)CCCCCCCCCCCCC(=O)O)C(=O)O)C(=O)N[C@@](C)(Cc1ccc(O)cc1)C(=O)N[C@@H](CC(C)C)C(=O)N[C@H](C(=O)N[C@@H](CCCCNC(=O)COCCOCCNC(=O)COCCOCCNC(=O)CC[C@H](NC(=O)CCCCCCCCCCCCC(=O)O)C(=O)O)C(=O)NCC(=O)NCC(=O)N1CCC[C@H]1C(=O)N[C@@H](CO)C(=O)N[C@@H](CO)C(=O)NCC(=O)N[C@@H](C)C(=O)N1CCC[C@H]1C(=O)N1CCC[C@H]1C(=O)N1CCC[C@H]1C(=O)N[C@@H](CO)C(N)=O)[C@@H](C)CC)[C@@H](C)CC [Example 315] (H-Y[Aib]EGT[αMePhe(2-F)]TSD[4Pal][Aib]I[αMeL]LD[Orn]IAQ[Aib][Orn]FIK([AEEA-AEEA-γGlu-C14 diacid])[αMeY]LIK([AEEA-AEEA-γGlu-C14 diacid])GGPSSGAPPPS-NH2),89.2%,0.0245 nM,93.5%,98.9%,0.376 nM,> 9950 nM,> 9950 nM,–,–,–,–,–,–,–,–,–
CC[C@H](C)[C@H](NC(=O)[C@H](CCCN)NC(=O)[C@H](CC(=O)O)NC(=O)[C@H](CC(C)C)NC(=O)[C@](C)(CC(C)C)NC(=O)[C@@H](NC(=O)[C@H](CO)NC(=O)[C@H](Cc1ccncc1)NC(=O)[C@H](CC(=O)O)NC(=O)[C@H](CO)NC(=O)[C@@H](NC(=O)[C@](C)(Cc1ccccc1F)NC(=O)[C@@H](NC(=O)CNC(=O)[C@H](CCC(=O)O)NC(=O)C(C)(C)NC(=O)[C@@H](N)Cc1ccc(O)cc1)[C@@H](C)O)[C@@H](C)O)[C@@H](C)CC)C(=O)N[C@@H](C)C(=O)N[C@@H](CCC(N)=O)C(=O)NC(C)(C)C(=O)N[C@@H](CCCCNC(=O)COCCOCCNC(=O)COCCOCCNC(=O)CCCCCCCCCCCCC(=O)O)C(=O)N[C@@H](Cc1ccccc1)C(=O)N[C@H](C(=O)N[C@H](CCC(=O)O)C(=O)N[C@@](C)(Cc1ccc(O)cc1)C(=O)N[C@@H](CC(C)C)C(=O)N[C@H](C(=O)N[C@@H](CCC(=O)O)C(=O)NCC(=O)NCC(=O)N[C@@H](CCCCNC(=O)COCCOCCNC(=O)COCCOCCNC(=O)CCCCCCCCCCCCC(=O)O)C(=O)N[C@@H](CO)C(=O)N[C@@H](CO)C(=O)NCC(=O)N[C@@H](C)C(=O)N1CCC[C@H]1C(=O)N1CCC[C@H]1C(=O)N1CCC[C@H]1C(=O)N[C@@H](CO)C(N)=O)[C@@H](C)CC)[C@@H](C)CC [Example 195],87 ± 12.2%,–,–,–,–,> 9950 nM,–,0.771 nM,88.5 ± 4.32%,0.0219 nM,14 nM,0.343 nM,> 9950 nM,–,–,–
CCCCCCCCCCCC(=O)N[C@@H](CCC(=O)NCCOCCOCC(=O)NCCOCCOCC(=O)NCCCC[C@H](NC(=O)[C@H](CCCN)NC(=O)[C@H](CC(=O)O)NC(=O)[C@H](CC(C)C)NC(=O)[C@](C)(CC(C)C)NC(=O)[C@@H](NC(=O)[C@H](CO)NC(=O)[C@H](CCc1ccc(O)cc1)NC(=O)[C@H](CC(=O)O)NC(=O)[C@H](CO)NC(=O)[C@@H](NC(=O)[C@](C)(Cc1ccccc1F)NC(=O)[C@@H](NC(=O)CNC(=O)[C@H](CCC(=O)O)NC(=O)C(C)(C)NC(=O)[C@@H](N)Cc1ccc(O)cc1)[C@@H](C)O)[C@@H](C)O)[C@@H](C)CC)C(=O)N[C@@H](C)C(=O)N[C@@H](CCC(N)=O)C(=O)NC(C)(C)C(=O)N[C@@H](CCCCNC(=O)COCCOCCNC(=O)COCCOCCNC(=O)CC[C@H](NC(=O)CCCCCCCCCCC)C(=O)O)C(=O)N[C@@H](Cc1ccccc1)C(=O)N[C@H](C(=O)N[C@H](CCC(=O)O)C(=O)N[C@@](C)(Cc1ccc(O)cc1)C(=O)N[C@@H](CC(C)C)C(=O)N[C@H](C(=O)N[C@@H](CCC(=O)O)C(=O)NCC(=O)NCC(=O)N1CCC[C@H]1C(=O)N[C@@H](CO)C(=O)N[C@@H](CO)C(=O)NCC(=O)N[C@@H](C)C(=O)N1CCC[C@H]1C(=O)N1CCC[C@H]1C(=O)N1CCC[C@H]1C(=O)N[C@@H](CO)C(N)=O)[C@@H](C)CC)[C@@H](C)CC)C(=O)O [Example 323],–,–,–,92.6%,0.203 nM,–,> 9950 nM,–,–,–,–,–,–,92.9%,> 9950 nM,–
CC[C@H](C)[C@H](NC(=O)[C@H](CCCN)NC(=O)[C@H](CC(=O)O)NC(=O)[C@H](CC(C)C)NC(=O)[C@](C)(CC(C)C)NC(=O)[C@@H](NC(=O)[C@H](CO)NC(=O)[C@H](Cc1ccc2ccccc2c1)NC(=O)[C@H](CC(=O)O)NC(=O)[C@H](CO)NC(=O)[C@@H](NC(=O)[C@](C)(Cc1ccccc1F)NC(=O)[C@@H](NC(=O)CNC(=O)[C@H](CCC(=O)O)NC(=O)C(C)(C)NC(=O)[C@@H](N)Cc1ccc(O)cc1)[C@@H](C)O)[C@@H](C)O)[C@@H](C)CC)C(=O)N[C@@H](C)C(=O)N[C@@H](CCC(N)=O)C(=O)NC(C)(C)C(=O)N[C@@H](CCCCNC(=O)COCCOCCNC(=O)COCCOCCNC(=O)CCCCCCCCCCCCC(=O)O)C(=O)N[C@@H](Cc1ccccc1)C(=O)N[C@H](C(=O)N[C@H](CCC(=O)O)C(=O)N[C@@](C)(Cc1ccc(O)cc1)C(=O)N[C@@H](CC(C)C)C(=O)N[C@H](C(=O)N[C@@H](CCC(=O)O)C(=O)NCC(=O)NCC(=O)N1CCC[C@H]1C(=O)N[C@@H](CO)C(=O)N[C@@H](CO)C(=O)NCC(=O)N[C@@H](C)C(=O)N1CCC[C@H]1C(=O)N1CCC[C@H]1C(=O)N1CCC[C@H]1C(=O)N[C@@H](CO)C(=O)N[C@@H](CCCCNC(=O)COCCOCCNC(=O)COCCOCCNC(=O)CCCCCCCCCCCCC(=O)O)C(N)=O)[C@@H](C)CC)[C@@H](C)CC [Example 258],–,0.0473 nM,–,94.9%,–,> 9950 nM,> 9950 nM,–,–,–,–,–,–,–,–,90.3%
CC[C@H](C)[C@H](NC(=O)[C@H](CC(C)C)NC(=O)[C@](C)(Cc1ccc(O)cc1)NC(=O)[C@@H](CCC(=O)O)NC(=O)[C@@H](NC(=O)[C@H](Cc1ccccc1)NC(=O)[C@H](CCCCNC(=O)COCCOCCNC(=O)COCCOCCNC(=O)CCCCCCCCCCCCC(=O)O)NC(=O)C(C)(C)NC(=O)[C@H](CCC(N)=O)NC(=O)[C@H](C)NC(=O)[C@H](CCCCNC(=O)COCCOCCNC(=O)COCCOCCNC(=O)CCCCCCCCCCCCC(=O)O)NC(=O)[C@H](CCCN)NC(=O)[C@H](CC(=O)O)NC(=O)[C@H](CC(C)C)NC(=O)[C@](C)(CC(C)C)NC(=O)[C@@H](NC(=O)[C@H](CO)NC(=O)[C@H](CCc1ccc(O)cc1)NC(=O)[C@H](CC(=O)O)NC(=O)[C@H](CO)NC(=O)[C@@H](NC(=O)[C@](C)(Cc1ccccc1F)NC(=O)[C@@H](NC(=O)CNC(=O)[C@H](CCC(=O)O)NC(=O)C(C)(C)NC(=O)[C@@H](N)Cc1ccc(O)cc1)[C@@H](C)O)[C@@H](C)O)[C@@H](C)CC)[C@@H](C)CC)C(=O)N[C@@H](CCC(=O)O)C(=O)NCC(=O)NCC(=O)N1CCC[C@H]1C(=O)N[C@@H](CO)C(=O)N[C@@H](CO)C(=O)NCC(=O)N[C@@H](C)C(=O)N1CCC[C@H]1C(=O)N1CCC[C@H]1C(=O)N1CCC[C@H]1C(=O)N[C@@H](CO)C(N)=O [Example 272],81.2%,0.0264 nM,–,–,0.388 nM,> 9950 nM,> 9950 nM,–,–,–,–,–,–,–,–,86%
